Values after ≈ are worked out from the molar mass of the structure shown. Like-named read-outs stand apart in the source and are kept apart here.
Columns and labels:
Assay type in all cases: physicochemical
[1] = Dissolution of formulation slurries (Plasdone S630 + Polysorbate 80) in simulated intestinal fluid; conditions: simulated intestinal fluid plus aqueous formulation slurry, aqueous with cosolvent or surfactant or cyclodextrin, thermodynamic from solid; SIF plus water containing 2% Plasdone S630 and 1% Polysorbate 80, 37° C.; read-out: equilibrium solubility in formulation/SIF system
Protocol: Simulated intestinal fluid (SIF) was prepared by dissolving 21.6 mg of sodium hydroxide, 168.8 mg of sodium dihydrogen phosphate dihydrate, 311.6 mg of sodium chloride, and 113.0 mg of SIF Powder Original (Biorelevant) in 50 mL of water. A 100-mL, round-bottom flask was charged with 10 mL of SIF and a stir bar. The flask was placed in a 37° C. bath and stirring was begun. A 20-mL vial was charged with 10 mL of water and placed in a 37° C. bath.
Based on the inhibitory effects found in the excipient screen, further studies with formulation slurries containing the cocrystals suspended in water were used, in which both Plasdone S-630 and Polysorbate 80 are dissolved. The formulation recipe and dissolution procedure are: bring 5 mL of simulated intestinal fluid (SIF) to 37° C., add about 6 mg of a cocrystal into 5 mL of water (at 37° C.) containing 2% Plasdone S630 and 1% Polysorbate 80 to give the formulation slurry, add the formulation slurry to the SIF, pull samples, filter, and analyze by HPLC. A control experiment was carried out in which DHEA was used instead of a cocrystal.
For FIGS. 44 and 45, to the […]-vial of SIF (20-mL vial was charged with 10 mL of water and placed in a 37° C. bath) 12.1 mg of DHEA (from sample TL876) was added. The vial was capped and shaken, and the resulting slurry was poured into the round-bottom flask. […] The supernatants were analyzed by HPLC. […]

[2] = Dissolution study with DHEA concentration measured by HPLC over time; conditions: for solubility: aqueous dissolution study (pH 6.8 buffer, ambient temperature)
Protocol: High performance liquid chromatography (HPLC) analyses were carried out on an Agilent 1100 series instrument equipped with a UV detector using the following materials and operating parameters:
Calibration data used previously and standards analyzed prior to the samples were used to generate concentrations from peak areas.
At selected time points (10 minutes, 30 minutes, 1 hour, 2 hours, and 5 hours) the slurry was centrifuged and 700 μL of the liquid phase was withdrawn and passed through a 0.5 μm PTFE filter. The filtrate was concentrated in a purge of dry air until all the water evaporated, leaving a solid that was analyzed by HPLC. […] The pH of the filtrate was measured using a Thermo Scientific Orion 3 Star pH meter. The collected solid was analyzed by XRPD. […]
Further dissolution studies with concentration measurements at 10 minutes, 30 minutes, 1 hour, 2 hours, 5 hours, and overnight were conducted. Three such experiments were carried out, using DHEA polymorph form I (FI), the DHEA/D-fructose cocrystal, and the DHEA/glutaric acid cocrystal. […] All of the data are summarized in FIG. 10 through FIG. 14 and the data are plotted in FIG. 15 through FIG. 19.
Note that in each of the plots shown in […] the results of two experiments (time points at <10 min and time points at >10 minutes) are shown on one graph. In order to better visualize the curves, the x axes are in logarithmic scales (FIGS. 15-17). The tables shown in FIGS. 12 and 13 were derived from single experiments having time points at <10 minutes. The x axes on those plots are in linear scales (FIGS. 18 and 19).

[3] = Slurry of DHEA in simulated intestinal fluid, solid form by XRPD; conditions: about 3 hrs at room temperature, XRPD 3171

Work on C[C@]12CC[C@H](O)CC1=CC[C@@H]1[C@@H]2CC[C@]2(C)C(=O)CC[C@@H]12 [DHEA, Dehydroepiandrosterone] yielded a solubility thermodynamic [1] of 120 to 130 µg/mL.

For C[C@]12CC[C@H](O)CC1=CC[C@@H]1[C@@H]2CC[C@]2(C)C(=O)CC[C@@H]12 [DHEA hydrate S1, Dehydroepiandrosterone], the solubility ([2]; listed as DHEA (form S1)) was “about 17 μg/mL” and the solubility thermodynamic ([2]; pH 6.8 phosphate buffer, pH 6.8, aqueous buffer, thermodynamic from solid, most stable form in the presence of water, read-out: equilibrium solubility) was 17 µg/mL.

For C[C@]12CC[C@H](O)CC1=CC[C@@H]1[C@@H]2CC[C@]2(C)C(=O)CC[C@@H]12 [DHEA polymorph form I (FI), Dehydroepiandrosterone], the “change in concentration of DHEA with time” value ([2]; 10 minutes, 30 minutes, 1 hour, 2 hours, 5 hours, overnight) was “no change in concentration of DHEA with time”, the “remaining solids after dissolution experiment” value ([2]; after overnight experiment) was “DHEA form S2 (monohydrate)” and the “time for transformation of anhydrate to monohydrate to be complete” value ([2]; aqueous dissolution study) was “about 2 hours”. The solubility ([2]; pH 6.8 phosphate buffer, pH 6.8, aqueous buffer, thermodynamic from solid, read-out: solubility) was ~30 µg/mL (≈ 104 µM) and the “solid form after slurrying in SIF” value [3] was “mostly the hydrate S1 form”.

Reference: patent US10130713B2, “Cocrystalline DHEA formulations” (University of Houston System, priority 2013, dated 2018)
